One assay has as its system MV4;11 cells. The assay is described as follows: Cell viability assay (CellTiter-Glo) in MV4;11 cells, alone or with gilteritinib. It is filed as cell-based. To be noted: Homo sapiens, MV4-11, 72 h, MV4;11 cells, three days, CellTiter-Glo, read-out: MV4. Background: Cellular ATP, detected with luciferase, serves as a proxy for viable cell number.
The next assay deals with MOLM-13 cells. The assay is described as follows: Cell viability assay (CellTiter-Glo) in MOLM-13 cells, alone or with gilteritinib. It is filed as cell-based. To be noted: Homo sapiens, MOLM-13, 72 h, MOLM-13 cells, three days, CellTiter-Glo.
Setting [1] is: compound alone (without gilteritinib), 11 IC50.
[2] abbreviates: compound with gilteritinib 10 nM, 11 IC50 gilteritinib.
Setting [3] is: compound alone (without gilteritinib), read-out: MOLM-13 IC50.
Setting [4] is: compound with gilteritinib 20 nM, read-out: MOLM-13 IC50 gilteritinib.

Read-outs that look alike come from different tables or passages of the source. Where only a bound is given, the exact number is not on record here.

As to `O=C1CCC(N2C(=O)c3ccc(CCN4CC(n5cc(-c6cnc7ccccc7n6)c(C6CC6)n5)C4)cc3C2=O)C(=O)N1` (stereo not drawn) [GS-469, 5-(2-(3-(3-cyclopropyl-4-(quinoxalin-2-yl)-1H-pyrazol-1-yl)azetidin-1-yl)ethyl)-2-(2,6-dioxopiperidin-3-yl)isoindoline-1,3-dione], the IC50 in the assay with MV4;11 cells (setting [1]), with MV4;11 cells (setting [2]), with MOLM-13 cells (setting [3]) and in the assay with MOLM-13 cells (setting [4]) was more than 1 µM throughout.
Regarding `O=C1CCC(N2C(=O)c3ccc(NC[C@H]4C[C@H](n5nc(C6CC6)c6cccnc65)C4)cc3C2=O)C(=O)N1` (stereo partly drawn) [GS-470, 5-(((trans-3-(3-cyclopropyl-1H-pyrazolo[3,4-b]pyridin-1-yl)cyclobutyl)methyl)amino)-2-(2,6-dioxopiperidin-3-yl)isoindoline-1,3-dione], the IC50 was 0.01 to 0.1 µM in the assay with MV4;11 cells (setting [1]), less than 0.01 µM in the assay with MV4;11 cells (setting [2]), 0.01 to 0.1 µM with MOLM-13 cells (setting [3]) and less than 0.01 µM in the assay with MOLM-13 cells (setting [4]).
As to `O=C1CCC(N2C(=O)c3ccc(NC[C@H]4C[C@H](n5cc(-c6cccc(OC7CC7)n6)c(C6CC6)n5)C4)cc3C2=O)C(=O)N1` (stereo partly drawn) [GS-471, 5-(((trans-3-(4-(6-cyclopropoxypyridin-2-yl)-3-cyclopropyl-1H-pyrazol-1-yl)cyclobutyl)methyl)amino)-2-(2,6-dioxopiperidin-3-yl)isoindoline-1,3-dione], the IC50 with MV4;11 cells (setting [1]) was 0.01 to 0.1 µM; in the assay with MV4;11 cells (setting [2]), 0.01 to 0.1 µM; with MOLM-13 cells (setting [3]), 0.1 to 1 µM; with MOLM-13 cells (setting [4]) it was 0.01 to 0.1 µM.
For the molecule `CN1CCCC(c2cn([C@H]3C[C@H](CNc4ccc5c(c4)C(=O)N(C4CCC(=O)NC4=O)C5=O)C3)nc2C2CC2)C1` (stereo partly drawn) [GS-472, 5-(((trans-3-(3-cyclopropyl-4-(1-methylpiperidin-3-yl)-1H-pyrazol-1-yl)cyclobutyl)methyl)amino)-2-(2,6-dioxopiperidin-3-yl)isoindoline-1,3-dione], the IC50 with MV4;11 cells (setting [1]), with MV4;11 cells (setting [2]), in the assay on MOLM-13 cells (setting [3]) and with MOLM-13 cells (setting [4]) was more than 1 µM throughout.
Turning to `O=C1CCC(N2C(=O)c3ccc(NC[C@H]4C[C@H](n5nc(C6CC6)c6ccncc65)C4)cc3C2=O)C(=O)N1` (stereo partly drawn) [GS-473, 5-(((trans-3-(3-cyclopropyl-1H-pyrazolo[3,4-c]pyridin-1-yl)cyclobutyl)methyl)amino)-2-(2,6-dioxopiperidin-3-yl)isoindoline-1,3-dione], the IC50 with MV4;11 cells (setting [1]), in the assay on MV4;11 cells (setting [2]), in the assay with MOLM-13 cells (setting [3]) and in the assay with MOLM-13 cells (setting [4]) was more than 1 µM in each case.
With `O=C1CCC(N2C(=O)c3ccc(NC[C@H]4C[C@H](n5nc(C6CC6)c6cnccc65)C4)cc3C2=O)C(=O)N1` (stereo partly drawn) [GS-474, 5-(((trans-3-(3-cyclopropyl-1H-pyrazolo[4,3-c]pyridin-1-yl)cyclobutyl)methyl)amino)-2-(2,6-dioxopiperidin-3-yl)isoindoline-1,3-dione], the IC50 in the assay with MV4;11 cells (setting [1]), in the assay on MV4;11 cells (setting [2]), in the assay with MOLM-13 cells (setting [3]) and with MOLM-13 cells (setting [4]) was more than 1 µM throughout.
On to `O=C1CCC(N2C(=O)c3ccc(NC[C@H]4C[C@H](n5nc(C6CC6)c6ncccc65)C4)cc3C2=O)C(=O)N1` (stereo partly drawn) [GS-475, 5-(((trans-3-(3-cyclopropyl-1H-pyrazolo[4,3-b]pyridin-1-yl)cyclobutyl)methyl)amino)-2-(2,6-dioxopiperidin-3-yl)isoindoline-1,3-dione], for which the IC50 with MV4;11 cells (setting [1]), in the assay with MV4;11 cells (setting [2]), in the assay on MOLM-13 cells (setting [3]) and in the assay with MOLM-13 cells (setting [4]) was more than 1 µM each time.
Consider `O=C1CCC(N2Cc3cc(CNC(=O)c4cccc(N5CCC(n6cc(-c7cnc8ccccc8n7)cn6)CC5)c4)ccc3C2=O)C(=O)N1` (stereo not drawn) [GS-476, N-((2-(2,6-dioxopiperidin-3-yl)-1-oxoisoindolin-5-yl)methyl)-3-(4-(4-(quinoxalin-2-yl)-1H-pyrazol-1-yl)piperidin-1-yl)benzamide], for which the IC50 in the assay on MV4;11 cells (setting [1]), in the assay with MV4;11 cells (setting [2]), in the assay on MOLM-13 cells (setting [3]) and in the assay on MOLM-13 cells (setting [4]) was less than 0.01 µM each time.
Turning to `O=C1CCC(N2C(=O)c3ccc(NCCCCCC(=O)N4CCC(n5cc(-c6cnc7cccc(C8=CCNCC8)c7n6)cn5)CC4)cc3C2=O)C(=O)N1` (stereo not drawn) [GS-480, 2-(2,6-dioxopiperidin-3-yl)-5-((6-oxo-6-(4-(4-(8-(1,2,3,6-tetrahydropyridin-4-yl)quinoxalin-2-yl)-1H-pyrazol-1-yl)piperidin-1-yl)hexyl)amino)isoindoline-1,3-dione], the IC50 is 0.01 to 0.1 µM with MV4;11 cells (setting [1]), less than 0.01 µM in the assay with MV4;11 cells (setting [2]), 0.1 to 1 µM with MOLM-13 cells (setting [3]) and less than 0.01 µM in the assay with MOLM-13 cells (setting [4]).
For `O=C1CCC(N2C(=O)c3ccc(NCCCCCC(=O)N4CCC(c5cnc6ccccc6c5)CC4)cc3C2=O)C(=O)N1` (stereo not drawn) [GS-481, 2-(2,6-dioxopiperidin-3-yl)-5-((6-oxo-6-(4-(quinolin-3-yl)piperidin-1-yl)hexyl)amino)isoindoline-1,3-dione], the IC50 in the assay with MV4;11 cells (setting [1]) is less than 0.01 µM; in the assay with MV4;11 cells (setting [2]), less than 0.01 µM; with MOLM-13 cells (setting [3]), 0.01 to 0.1 µM; in the assay with MOLM-13 cells (setting [4]) it was less than 0.01 µM.
For `O=C(Cc1cccc(N2CCN(c3ccccn3)CC2)c1)NCc1ccc2c(c1)CN(C1CCC(=O)NC1=O)C2=O` (stereo not drawn) [GS-483, N-((2-(2,6-dioxopiperidin-3-yl)-1-oxoisoindolin-5-yl)methyl)-2-(3-(4-(pyridin-2-yl)piperazin-1-yl)phenyl)acetamide], the IC50 in the assay on MV4;11 cells (setting [1]), in the assay on MV4;11 cells (setting [2]), in the assay with MOLM-13 cells (setting [3]) and in the assay with MOLM-13 cells (setting [4]) was less than 0.01 µM in each case.
As for `O=C1CCC(N2Cc3cc(OCCCCC(=O)N4CCC(n5cc(-c6cnc7ccccc7n6)cn5)CC4)ccc3C2=O)C(=O)N1` (stereo not drawn) [GS-484, 3-(1-oxo-5-((5-oxo-5-(4-(4-(quinoxalin-2-yl)-1H-pyrazol-1-yl)piperidin-1-yl)pentyl)oxy)isoindolin-2-yl)piperidine-2,6-dione], the IC50 was more than 1 µM in the assay with MV4;11 cells (setting [1]), 0.1 to 1 µM in the assay on MV4;11 cells (setting [2]), 0.1 to 1 µM in the assay on MOLM-13 cells (setting [3]) and 0.1 to 1 µM in the assay with MOLM-13 cells (setting [4]).
On to `O=C1CCC(N2Cc3cc(OCCC(=O)N4CCC(n5cc(-c6cnc7ccccc7n6)cn5)CC4)ccc3C2=O)C(=O)N1` (stereo not drawn) [GS-485, 3-(1-oxo-5-(3-oxo-3-(4-(4-(quinoxalin-2-yl)-1H-pyrazol-1-yl)piperidin-1-yl)propoxy)isoindolin-2-yl)piperidine-2,6-dione], for which the IC50 in the assay on MV4;11 cells (setting [1]), in the assay with MV4;11 cells (setting [2]), in the assay on MOLM-13 cells (setting [3]) and with MOLM-13 cells (setting [4]) was more than 1 µM throughout.
As for `O=C1CCC(N2Cc3cc(OCCCN4CCC(n5cc(-c6cnc7ccccc7n6)cn5)CC4)ccc3C2=O)C(=O)N1` (stereo not drawn) [GS-492, 3-(1-oxo-5-(3-(4-(4-(quinoxalin-2-yl)-1H-pyrazol-1-yl)piperidin-1-yl)propoxy)isoindolin-2-yl)piperidine-2,6-dione], the IC50 in the assay on MV4;11 cells (setting [1]), in the assay with MV4;11 cells (setting [2]), in the assay with MOLM-13 cells (setting [3]) and in the assay with MOLM-13 cells (setting [4]) was more than 1 µM in each case.
Consider `O=C1CCC(N2Cc3cc(OCCCCCC(=O)N4CCC(n5cc(-c6cnc7ccccc7n6)cn5)CC4)ccc3C2=O)C(=O)N1` (stereo not drawn) [GS-493, 3-(1-oxo-5-((6-oxo-6-(4-(4-(quinoxalin-2-yl)-1H-pyrazol-1-yl)piperidin-1-yl)hexyl)oxy)isoindolin-2-yl)piperidine-2,6-dione], for which the IC50 was 0.01 to 0.1 µM with MV4;11 cells (setting [1]), less than 0.01 µM with MV4;11 cells (setting [2]), more than 1 µM in the assay with MOLM-13 cells (setting [3]) and less than 0.01 µM with MOLM-13 cells (setting [4]).

The record behind these values is patent publication US20240050428A1 (Cullgen (Shanghai), Inc., priority 2020, published 2024).
